One assay has as its target T1, WEE1 (Homo sapiens, UniProt P30291+Q96SW2).
T1 construct: C-terminal ePL-tagged (DiscoverX, Fremont, CA) full-length WEE1 expression construct; expressed in transfected cells; host or cells: LentiX-HEK293T (Invitrogen), lentiviral transduction; co-expressing GSPT1-GN (G576N, lacking the first 158 amino acids)
As to the kind of experiment: WEE1-ePL degradation assay (LentiX-WEE1-ePL-GSPT1-ND cells, InCELL Hunter luminescence, 4 h). It counts as cell-based. The following applies: 293T-LentiX WEE1-ePL cells; for 293T-LentiX WEE1-ePL Degradation 4 hr (Ymin): lower limit of the fit (0 = luciferase inhibitor, Ymax = DMSO control); for DC50: read-out: 293T-LentiX WEE1-ePL Degradation 4 hr (EC50). The method, boiled down: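 Luminescent readout (InCELL Hunter, 30 min RT) of WEE1-ePL levels in transduced HEK293T cells after 4 h compound exposure at 37 °C. Dosing: 10 points, 3-fold steps, top 1 uM or 10 uM. EC50 from four-parameter logistic fit; Ymax set by DMSO.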

For another assay, the system named is MKN45 cells. The experiment in a line: MKN45 cell proliferation assay (Cell-Titer-Glo, 120 h). It counts as cell-based. The following applies: for EC50: Homo sapiens, MKN-45, 120 h, Cell-Titer-Glo, growth inhibition, read-out: MKN45 Cell Prolif. 120 hr (EC50); for MKN45 Cell Prolif. 120 hr (Ymin-Obs): minimal percent of DMSO control observed in the concentrations tested. The method, boiled down:
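Growth inhibition was read as blank-corrected Cell-Titer-Glo luminescence expressed as percent DMSO control after 120 h at 37 C, 400 cells/well. Compounds tested in triplicate as 10-point half-log series from 1 or 10 uM, 0.1% DMSO; four-parameter fit gave EC50, and lowest observed percent control was reported as Ymin-obs.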

SMILES strings stand for the structures.

The EC50 is the concentration that produces a half-maximal response.

As for `O=C1CCC(N2Cc3cc(O[C@H]4CCN(Cc5ccc6cccnc6c5)C4)ccc3C2=O)C(=O)N1` (stereo partly drawn) [3-(1-oxo-5-{[(3S)-1-[(quinolin-7-yl)methyl]pyrrolidin-3-yl]oxy}-2,3-dihydro-1H-isoindol-2-yl)piperidine-2,6-dione], at WEE1, the “293T-LentiX WEE1-ePL Degradation 4 hr (Ymin)” value stood at 57 and the DC50 worked out at 0.0301 µM. Besides, in the assay on MKN45 cells, the concentration giving a half-maximal response (EC50) is > 10 µM and the “MKN45 Cell Prolif. 120 hr (Ymin-Obs)” value was 76.22.
On the same counts, the results for `O=C1CCC(N2Cc3cc(O[C@H]4CCN(Cc5cnc6ccccc6n5)C4)ccc3C2=O)C(=O)N1` (stereo partly drawn) [3-(1-oxo-5-{[(3S)-1-[(quinoxalin-2-yl)methyl]pyrrolidin-3-yl]oxy}-2,3-dihydro-1H-isoindol-2-yl)piperidine-2,6-dione] are 43.82, 0.0469 µM, > 10 µM and 64.16.
For `O=C1CCC(N2Cc3cc(O[C@H]4CCN(Cc5ccc6nccnc6c5)C4)ccc3C2=O)C(=O)N1` (stereo partly drawn) [3-(1-oxo-5-{[(3S)-1-[(quinoxalin-6-yl)methyl]pyrrolidin-3-yl]oxy}-2,3-dihydro-1H-isoindol-2-yl)piperidine-2,6-dione], at WEE1, the “293T-LentiX WEE1-ePL Degradation 4 hr (Ymin)” value is recorded as 43 and the DC50 was 0.0142 µM. In the assay on MKN45 cells, the concentration giving a half-maximal response (EC50) worked out at 0.879 µM and the “MKN45 Cell Prolif. 120 hr (Ymin-Obs)” value was 70.03.
Turning to `O=C1CCC(N2Cc3cc(O[C@H]4CCN(Cc5cnn(-c6cccnc6)c5)C4)ccc3C2=O)C(=O)N1` (stereo partly drawn) [3-(1-oxo-5-{[(3S)-1-{[1-(pyridin-3-yl)-1H-pyrazol-4-yl]methyl}pyrrolidin-3-yl]oxy}-2,3-dihydro-1H-isoindol-2-yl)piperidine-2,6-dione], at WEE1, the “293T-LentiX WEE1-ePL Degradation 4 hr (Ymin)” value is reported as 31.735. In addition, in the assay on MKN45 cells, the concentration giving a half-maximal response (EC50) is 0.269 µM and the “MKN45 Cell Prolif. 120 hr (Ymin-Obs)” value is reported as 11.53.
As for `O=C1CCC(N2Cc3cc(O[C@H]4CCN(Cc5ccc6nc(CC(F)(F)F)ccc6c5)C4)ccc3C2=O)C(=O)N1` (stereo partly drawn) [3-(1-oxo-5-{[(3S)-1-{[2-(2,2,2-trifluoroethyl)quinolin-6-yl]methyl}pyrrolidin-3-yl]oxy}-2,3-dihydro-1H-isoindol-2-yl)piperidine-2,6-dione], on WEE1, the “293T-LentiX WEE1-ePL Degradation 4 hr (Ymin)” value was 33.67 and the DC50 is 0.0054 µM. For the same molecule, in the assay with MKN45 cells, the half-maximal effective concentration (EC50) was determined as 0.0208 µM and the “MKN45 Cell Prolif. 120 hr (Ymin-Obs)” value is reported as 13.32.
In the same order, the values of `O=C1CCC(N2Cc3cc(O[C@H]4CCN(Cc5ccc6nc(-n7ccccc7=O)ccc6c5)C4)ccc3C2=O)C(=O)N1` (stereo partly drawn) [3-(1-oxo-5-{[(3S)-1-{[2-(2-oxo-1,2-dihydropyridin-1-yl)quinolin-6-yl]methyl}pyrrolidin-3-yl]oxy}-2,3-dihydro-1H-isoindol-2-yl)piperidine-2,6-dione] are 35, 0.00227 µM, 0.00193 µM and 8.805.
On the same counts, the results for `O=C1CCC(N2Cc3cc(O[C@H]4CCN(Cc5ccc6nc(N7CCCCC7=O)ccc6c5)C4)ccc3C2=O)C(=O)N1` (stereo partly drawn) [3-(1-oxo-5-{[(3S)-1-{[2-(2-oxopiperidin-1-yl)quinolin-6-yl]methyl}pyrrolidin-3-yl]oxy}-2,3-dihydro-1H-isoindol-2-yl)piperidine-2,6-dione] are 31.5, 0.00173 µM, 0.000959 µM and 7.56.
In the same order, the values of `O=C1CCC(N2Cc3cc(O[C@H]4CCN(Cc5ccc6nc(N7CCCC7=O)ccc6c5)C4)ccc3C2=O)C(=O)N1` (stereo partly drawn) [3-(1-oxo-5-{[(3S)-1-{[2-(2-oxopyrrolidin-1-yl)quinolin-6-yl]methyl}pyrrolidin-3-yl]oxy}-2,3-dihydro-1H-isoindol-2-yl)piperidine-2,6-dione] are 31, 0.00183 µM, 0.00719 µM and 10.36.
